Measurements reported in patent US20110003751A1, “Novel Immunoregulatory Peptides, Compositions and Uses Thereof” (priority 2007, published 2011).

Test system: CFU-S regeneration in the bone marrow of 1-Gy irradiated mice
Assay: Stimulation of CFU-S regeneration in bone marrow of 1-Gy irradiated mice (spleen colony count)
Format: in vivo
Description: Test animals were irradiated with ^60Co gamma-rays at a dose rate of 0.8 Gy per min. Bone marrow recipients were irradiated with a dose of 8 Gy; donors were irradiated with a dose of […]. The suspension of bone marrow cells of intact animals was irradiated with 1 Gy, 5-10 min prior to injection to lethally irradiated recipients.
Stimulation of CFU-S regeneration in the bone marrow of 1-Gy irradiated mice was studied with different routes of administration of the peptides.
For this purpose, at least 5 mice from each group were killed and their bone marrow was obtained. Cell suspension was prepared and injected to lethally irradiated mice. After 9 days, spleen colonies were counted to determine the CFU-S content in 1-Gy irradiated donors who received the peptide.

[1] = per os (oral gavage), 100 ug/kg, 30 min after injection of bone marrow suspension, average of two tests
[2] = intraperitoneally, 100 ug/kg, 30 min after injection of bone marrow suspension, average of two tests

Row | Substance | Colony count [1] | Activity % (per os, 100 ug/kg) [%] | Stimulation index (per os, 100 ug/kg) | % stimulation (IP, 10 ug/kg) [%] | Colony count (IP, 10 ug/kg) | % stimulation (IP, 100 ug/kg (Table 4)) [%] | Colony count (IP, 100 ug/kg (Table 4)) | % stimulation (IP, 1000 ug/kg) [%] | Colony count (IP, 1000 ug/kg) | Activity % (intraperitoneally, 100 ug/kg) [%] | Stimulation index (intraperitoneally, 100 ug/kg) | Colony count [2] | % stimulation (per/os, 100 ug/kg (Table 4)) [%] | Colony count (per/os, 100 ug/kg (Table 4)) | % stimulation (per/os, 1000 ug/kg) [%] | Colony count (per/os, 1000 ug/kg) | % stimulation (per/os, 10 ug/kg) [%] | Colony count (per/os, 10 ug/kg)
1 | H-L-Ile-D-Glu-D-Trp-OH [reference compound] | 5.8 ± 0.3 | 0 | 0 |  |  |  |  |  |  |  |  |  |  |  |  |  |  | 
2 | H-L-Ile-L-Glu-L-Trp-OH [reference compound] | 5.6 ± 0.5 | 0 | 0 | 82 | 9.7 ± 0.4 | 81 | 9.6 ± 0.7 | 100 | 11.8 ± 00.9 | 80 | 0.8 | 8.2 ± 0.5 | 0 | 6.7 ± 0.5 | 0 | 6.1 ± 00.3 |  | 
3 | H-L-Ile-γ-Glu-L-Trp-OH | 8.6 ± 0.7 | 83 | 0.8 | 64 | 7.6 ± 0.7 | 69 | 8.2 ± 00.4 | 87 | 10.4 ± 00.6 | 84 | 0.8 | 8.6 ± 0.7 | 70 | 8.3 ± 0.4 | 90 | 10.7 ± 00.8 | 0 | 6.9 ± 0.7
4 | H-L-Leu-L-Glu-L-Trp-OH [reference compound] | 6.2 ± 0.3 | 0 | 0 |  |  |  |  |  |  | 74 | 0.7 | 7.6 ± 0.7 |  |  |  |  |  | 
5 | H-L-Leu-L-γ-Glu-L-Trp-OH | 6.7 ± 0.7 | 67 | 0.7 |  |  |  |  |  |  | 69 | 0.7 | 6.9 ± 0.6 |  |  |  |  |  | 
6 | H-L-Trp-L-Glu-L-Ile-OH [reference compound] | 5.9 ± 0.8 | 0 | 0 |  |  |  |  |  |  | 79 | 0.8 | 8.1 ± 1.0 |  |  |  |  |  | 
7 | H-L-γ-Glu-D-Trp-L-Ile-OH | 6.8 ± 0.5 | 66 | 0.7 |  |  |  |  |  |  | 61 | 0.6 | 6.2 ± 0.5 |  |  |  |  |  | 
8 | H-L-γ-Glu-L-Trp-L-Ile-OH | 7.7 ± 0.6 | 75 | 0.7 |  |  |  |  |  |  | 73 | 0.7 | 7.5 ± 0.5 |  |  |  |  |  | 
